The test system of series [1] is human hepatoma cells (HEP-G2). Nature of the series: Inhibition of 14C-acetate incorporation in digitonin-precipitatable steroids in HEP-G2 cells. To be noted: Homo sapiens; for percent change in 14C-acetate incorporation into sterols at 0.1 µM: HepG2, 10^-7 mol/l; for percent change in 14C-acetate incorporation into sterols at 0.01 µM: HepG2, 10^-8 mol/l. Type of series: cell-based. As for the experimental part:
I. Measurement of the inhibition of ^14 C-acetate incorporation in digitonin-precipitatable steroids:
After 3 days of culture, human hepatoma cells (HEP-G2) are stimulated for 16 hours in cholesterol-free medium. The substances to be tested (dissolved in dimethyl sulphoxide, final concentration 0.1%) are added during this stimulation phase. After the addition of 200 μmol/l of 2-^14 C-acetate, the mixture is then reincubated at 37° C. for a further 2 hours.
The cells are detached and the sterol esters are hydrolyzed and, after extraction, sterols are precipitated using digitonin. The ^14 C-acetate incorporated into digitonin-precipitatable sterols is determined by scintillation measurement.
The investigation of the inhibitory action was carried out at test concentrations of 10^-7 mol/l and 10^-8 mol/l. The test results of the following compounds A to AG of the general formula I are indicated at these test concentrations by way of example: […]

Series [2] has as its system Normal human epidermal keratinocytes (NHEK). Nature of the series: Inhibition of cell proliferation of keratinocytes. Type of series: cell-based. To be noted: 48 hours, read-out: percentage decrease in cell numbers. As for the experimental part: V. Inhibition of cell proliferation
Normal human epidermal keratinocytes (NHEK) are cultured under sterile conditions in keratinocyte growth medium (Gibco) in a humidified, 5% CO2 -containing atmosphere. Cells of the third passage are inoculated at a density of 12,000 cells/ml.
After 24 hours, the test substance is added to the medium and the number of cells is determined after a further 48 hours. The results were calculated in comparison to a control and are indicated as the percentage decrease in cell numbers.
The proliferation-inhibiting action of the above mentioned compound A was tested in comparison to simvastatin at concentrations of 10^-6 to 10^-10 mol/l.

Series [3] relates to normolipaemic golden hamster. Nature of the series: Lipid reduction in the normolipaemic golden hamster. The series is classed as in vivo. To be noted: 12 days, vs control group. The procedure: III. Lipid reduction in the normolipaemic golden hamster
Male golden hamsters are fed ad lib with a cholesterol-free hamster diet for 12 days. The substance to be tested is admixed to the feed in concentrations of 0.01 to 0.10%. At the end of the experimental period, the total cholesterol, the HDL fraction and also the VLDL+LDL fraction are determined by standard methods, a control group fed without test substance being used for comparison.
The hypolipidaemic activity of the above mentioned compound A was tested.

Series [4] can be described thus: Toxic effects in the mouse after oral administration. Type of series: in vivo. To be noted: oral 100 mg/kg, once daily for 4 days. From the text:
The compounds A to I appeared to be non-toxic at the curative dose.

The subject of series [5] is 2,3-epoxysqualene-lanosterol cyclase. Nature of the series: In vivo effect in the rat after oral administration: 2,3-epoxysqualene level in plasma. The arrangement: species or system rat (male Wistar). To be noted: 5 hours after administration. The procedure:
II. Measurement of the in vivo effect in the rat after oral administration
The inhibition of the enzyme 2,3-epoxysqualene-lanosterol cyclase causes an increase in the 2,3-epoxy-squalene level in the liver and plasma. Therefore, the amount of 2,3-epoxysqualene formed therefore serves as a direct measure of the effectiveness in the whole animal. The determination is carried out by the following method:
The test substance suspended in 1.5% strength aqueous methylcellulose is administered via stomach tube to male Wistar rats (160-190 g body weight). 5 hours after administration, blood is obtained retroorbitally from the venous plexus. Plasma is extracted by the method of Bligh and Dyer (Canad. J. Biochem. Physiol. 37, 912, [1959]), purified by means of a precolumn and then analyzed by means of HPLC. The peaks obtained are identified and quantified by means of calibration substances. An internal standard is used to check the reproducibility of the results.
The investigations were carried out using concentrations of 0.1 and 1.0 mg/kg. The results for the above mentioned substances A to M are compiled in the following Table by way of example: […]

The subject of series [6] is normolipaemic golden hamster. Briefly: Determination of the lithogenic index in the normolipaemic golden hamster. The series is classed as in vivo. To be noted: 20 days. As for the experimental part: IV. Determination of the lithogenic index in the normolipaemic golden hamster
The lithogenic index is a measure of susceptibility to gallstone formation and is defined as the […] in mol %. It was determined by the method of Carey and Small, described in J. Clin. Investig. 61, 998-1026 [1978]. The higher the lithogenic index, the higher the probability of gallstone formation. The determination of the lithogenic index was carried out as follows:
Male golden hamsters are fed ad lib with a cholesterol-free hamster diet for 20 days. The substance to be tested is admixed to the feed in concentrations of 0.01 to 0.1%. At the end of the experimental period, total cholesterol, the HDL fraction and also the VLDL+LDL fraction in the serum, and the bile acids, the cholesterol and the phospholipids in the bile are determined by standard methods.
The compound A described above was tested. The percentage decrease in the lithogenic index was determined relative to the control.

The subject of series [7] is Sacc. carlsbergensis ATCC 9080. Nature of the series: Fungistatic activity, serial dilution test. The series is classed as cell-based. To be noted: Saccharomyces pastorianus, ATCC9080, 2 to 4 days at 26° C. As for the experimental part: (§1) VI. Determination of fungistatic activity The fungistatic activity was determined by means of the serial dilution test (microtitre system). Sabouraud broth was used as the nutrient medium. The inoculum was approximately 10^4 to 10^5 CFU/ml (CFU=colony-forming units); the incubation time was 2 to 4 days at 26° C. The minimum inhibitory concentration (MIC), i.e. the lowest concentration which no longer allowed visible growth, and the lowest concentration at which a decrease in growth of the test microorganism occurred in comparison with a control were determined. The above mentioned compound I was tested.

Another series concerns Rhodotorula rubra 49. Briefly: Fungistatic activity, serial dilution test. The series is classed as cell-based. To be noted: 2 to 4 days at 26° C. The procedure: as §1
Series [8] relates to Trichophyton mentagrophytes ATCC 9129. Nature of the series: Fungistatic activity, serial dilution test. Type of series: cell-based. To be noted: ATCC9129, 2 to 4 days at 26° C. The procedure:
as §1

For series [9], the system named is Penicillium notatum CBS 19746. Nature of the series: Fungistatic activity, serial dilution test. Type of series: cell-based. To be noted: Penicillium chrysogenum, CBS19746, 2 to 4 days at 26° C. The procedure:
as §1

Series [10] relates to Candida albicans ATCC 10231. Nature of the series: Fungistatic activity, serial dilution test. Type of series: cell-based. To be noted: ATCC10231, 2 to 4 days at 26° C. The procedure:
as §1

In series [11] the test system is Aspergillus niger ATCC 16404. Briefly: Fungistatic activity, serial dilution test. Type of series: cell-based. To be noted: ATCC16404, 2 to 4 days at 26° C. The procedure:
as §1

For series [12] the following is noted: cited from earlier work.
For the next series, the system named is laying hens. To be noted: FASEB Journal 4, A 533 [1990]; cited from earlier work.
Another series deals with smooth muscle cell. To be noted: Cardiovasc. Drugs Ther. 5, Suppl. 3, 354 [1991]; cited from earlier work.
The conditions of series [13]: J. Biol. Chemistry 265, 18075-18078 [1990]; cited from earlier work.
Setting [14] is: read-out: Decrease in growth (lowest concentration).
Where [15] appears, read: Gut 31, 348-350 [1990], Z. Gastroenterol. 29, 242-245 [1991].

The structures appear in SMILES notation. ≈ marks a conversion by molar mass, not a printed value.

As to `O=C(c1ccc(Cl)cc1)N1CCC(=Cc2ccc(C3=NCCO3)cc2)CC1` [A, 1-(4-chlorobenzoyl)-4-[4-(2-oxazolin-2-yl)benzylidene]piperidine], the percent change in 14C-acetate incorporation into sterols at 0.1 µM in series [1] is -81%. Besides, the percent change in 14C-acetate incorporation into sterols at 0.01 µM in [1] is -58%. The inhibition at 1 µM in series [2] (10^-6 mol/l) came to 72%. In [2] (10^-7 mol/l), the inhibition at 0.1 µM was 73%. In addition, the inhibition at 0.01 µM in series [2] (10^-8 mol/l) was found to be 70%. For the same compound, the inhibition at 0.001 µM in series [2] (10^-9 mol/l) was determined as 48%. Also, the inhibition at 0.0001 µM in [2] (10^-10 mol/l) turned out to be 16%. Also, the HDL in [3] (0.01% in feed) is on record as -12.4%; in series [3] (0.03% in feed), -17.5%; in series [3] (0.10% in feed), -13.9%. Further, the “Total Cholesterol” value is on record as -19.8% in series [3] (0.01% in feed), -26.3% in series [3] (0.03% in feed) and -25.8% in series [3] (0.10% in feed). Besides, the figures for the “VLDL + LDL” value in [3] (0.01% in feed), in series [3] (0.03% in feed) and in series [3] (0.10% in feed) were -25.0%, -31.2% and -36.6%, respectively. Further, in [4], the “toxic effects in the mouse” value is “no toxic effects”. Moreover, the “2,3-Epoxysqualene concentration in plasma (rat)” value came to 0.71 µg/mL in series [5] (0.1 mg/kg oral) and 3.75 µg/mL in series [5] (1.0 mg/kg oral). The “Lithogenic Index (percentage decrease relative to control)” value is -24% in [6] (0.01% in feed); -10% in [6] (0.03% in feed, n.s. = not significant); -28% in series [6] (0.1% in feed).

In general, MIC refers to the least concentration at which growth counts as inhibited. High values mean weaker potency, low ones greater potency. `O=C(c1ccc(Cl)cc1)N1CCC(Cc2ccc(C3=NCCO3)cc2)CC1` [I, 1-(4-chlorobenzoyl)-4-[4-(2-oxazolin-2-yl)benzyl]piperidine]: the percent change in 14C-acetate incorporation into sterols at 0.1 µM in series [1] is -89%. Moreover, the percent change in 14C-acetate incorporation into sterols at 0.01 µM in series [1] is -75%. The “toxic effects in the mouse” value in series [4] is listed as “no toxic effects”. For the same compound, the “2,3-Epoxysqualene concentration in plasma (rat)” value amounted to 3.41 µg/mL in [5] (0.1 mg/kg oral) and 8.41 µg/mL in [5] (1.0 mg/kg oral). Besides, the MIC is 128 µg/mL (≈ 334 µM) in series [7]; 128 µg/mL (≈ 334 µM) in the series on Rhodotorula rubra 49; 512 µg/mL (≈ 1340 µM) in series [8]; 128 µg/mL (≈ 334 µM) in series [9]; 128 µg/mL (≈ 334 µM) in [10]; above 1020 µg/mL in series [11]. Further, the minimal effective concentration in series [7] (setting [14]) is 64 µg/mL; in the series with Rhodotorula rubra 49 (setting [14]), 32 µg/mL; in [9] (setting [14]) it was 64 µg/mL; in series [10] (setting [14]), 64 µg/mL; in [11] (setting [14]) it was 128 µg/mL.

On to `CC[C@H](C)C(=O)O[C@H]1C[C@@H](C)C=C2C=C[C@H](C)[C@H](CC[C@@H]3C[C@@H](O)CC(=O)O3)[C@H]21` [lovastatin], for which, in [12] (setting [15]), the “cholesterol concentration in the bile / lithogenic index” value is given as “can cause a reduction of the cholesterol concentration in the bile” and the gallstone formation entry was “do not lead to increased gallstone formation”. Also, the dissolution of gallstones entry in series [12] (in particular in combination with ursodeoxycholic acid, Gastroenterology 102, A 319 [1992]) was “effectiveness”. In addition, the “cholesterol content of eggs” value in the series on laying hens was “lowering of the cholesterol content of eggs”. The “smooth muscle cell proliferation” value with smooth muscle cell is given as “inhibition of smooth muscle cell proliferation”.

In the case of `CCN(CC)CCOc1ccc(C(O)(Cc2ccc(Cl)cc2)c2ccc(C)cc2)cc1` (centres unmarked) [triparanol], the “toxic effects leading to withdrawal from the market” value in series [13] was “formation of cataracts, ichthyosis and alopecia”.

The values are drawn from patent publication US5466687A, “Arylidene-1-azacycloalkanes and arylalkyl-1-azacyclo-alkanes, their salts, medicaments containing these compounds and their use, and processes for their preparation” (priority 1992, dated 1995).
